Two compounds from patent US8987340B2, “Sublimable sustained release delivery system and method of making same” (Oakwood Laboratories, LLC, priority 2005, dated 2015) can be followed below.

The data set is described as follows: In vivo sublimation (disappearance) of pellets from subcutaneous implant sites. The arrangement: species or system Sprague-Dawley male rats. The conditions noted are these: subcutaneous implant in neck scruff of rats, explanted pellet mass (FIG. 11). As to the method:
The in-vivo disappearance rates of hexamethylethane and adamantane pellets from subcutaneous implant sites in rats were assessed over a 16-week period. Forty six Sprague-Dawley male rats of similar age and weight were assigned into five treatment groups: hexamethylethane pellet implantation (Group H), adamantane pellet implantation (Group A), PLGA (Boehringer Ingelheim Resomer RG 504H) pellet implantation (Group P), a sham group for which surgery was performed without pellet implantation, and a control (no surgery) group. Pellets were individually weighed, and implanted into the neck scruff of rats. Explantation and reweighing of adamantane pellets was performed at 4 and 8 days, and 2, 4, 8, and 10 weeks; hexamethylethane pellets were explanted and weighed at 4 and 24 hours, and 4, 8, and 14 days.

Molecules are shown by their SMILES.

For `C1C2CC3CC1CC(C2)C3` [adamantane], the “in-vivo sublimation / disappearance period of pellets” value was “over a period of at least two months”.

For `CC(C)(C)C(C)(C)C` [hexamethylethane, 2,2,3,3-Tetramethylbutane], the “in-vivo sublimation / disappearance period of pellets” value was “over a period as short as one week”.
